Measurements taken from ChEMBL document CHEMBL4052645, “Discovery of potent and efficacious pyrrolopyridazines as dual JAK1/3 inhibitors” (Bioorg Med Chem Lett, 2017).

Experiments:
[1] = target: Serine/threonine-protein kinase PAK 5 (Homo sapiens) (UniProt Q9P286); assay: Inhibition of wild-type human partial length PAK5 (Y400 to H719 residues) expressed in bacterial expression system assessed as residual activity at 50 nM by Kinomescan method relative to control
[2] = target: Mitogen-activated protein kinase kinase kinase 19 (Homo sapiens) (UniProt Q56UN5); assay: Inhibition of wild-type human partial length YSK4 (T1019 to H1328 residues) expressed in mammalian expression system assessed as residual activity at 50 nM by Kinomescan method relative to control
[3] = target: Dual serine/threonine and tyrosine protein kinase (Homo sapiens) (UniProt Q6XUX3); assay: Inhibition of wild-type human full length RIPK5 (M1 to T929 residues) expressed in mammalian expression system assessed as residual activity at 50 nM by Kinomescan method relative to control
[4] = target: RAC-gamma serine/threonine-protein kinase (Homo sapiens) (UniProt Q9Y243); assay: Inhibition of wild-type human partial length AKT3 expressed in bacterial expression system assessed as residual activity at 50 nM by Kinomescan method relative to control
[5] = target: Mitogen-activated protein kinase kinase kinase 4 (Homo sapiens) (UniProt Q9Y6R4); assay: Inhibition of wild-type human partial length MAP3K4 ([…] residues) expressed in mammalian expression system assessed as residual activity at 50 nM by Kinomescan method relative to control
[6] = target: Rho-associated protein kinase 2 (Homo sapiens, UniProt O75116); assay: Inhibition of human ROCK2 (M1 to T431 residues) expressed in mammalian expression system assessed as residual activity at 50 nM by KINOMEscan assay relative to control
[7] = target: Serine/threonine-protein kinase 17B (Homo sapiens) (UniProt O94768); assay: Inhibition of wild-type human full length DRAK2 (M1 to C372 residues) expressed in bacterial expression system assessed as residual activity at 50 nM by Kinomescan method relative to control
[8] = target: Non-receptor tyrosine-protein kinase TNK1 (Homo sapiens) (UniProt Q13470); assay: Inhibition of wild-type human full length TNK1 (M1 to P661 residues) expressed in bacterial expression system assessed as residual activity at 50 nM by Kinomescan method relative to control
[9] = target: Mitogen-activated protein kinase kinase kinase 15 (Homo sapiens) (UniProt Q6ZN16); assay: Inhibition of wild-type human partial length MAP3K15 (T625 to L932 residues) expressed in mammalian expression system assessed as residual activity at 50 nM by Kinomescan method relative to control
[10] = target: cAMP-dependent protein kinase catalytic subunit beta (Homo sapiens) (UniProt P22694); assay: Inhibition of wild-type human full length PKACB (M1 to F351 residues) expressed in bacterial expression system assessed as residual activity at 50 nM by Kinomescan method relative to control
[11] = target: NUAK family SNF1-like kinase 2 (Homo sapiens) (UniProt Q9H093); assay: Inhibition of human NUAK2 (P22 to A333 residues) expressed in mammalian expression system assessed as residual activity at 50 nM by KINOMEscan assay relative to control
[12] = target: Non-receptor tyrosine-protein kinase TYK2 (Homo sapiens, UniProt P29597); assay: Inhibition of wild-type human partial length TYK2 JH2 pseudokinase domain (G556 to D888 residues) expressed in mammalian expression system assessed as residual activity at 50 nM by Kinomescan method relative to control
[13] = target: 3-phosphoinositide-dependent protein kinase 1 (Homo sapiens) (UniProt O15530); assay: Inhibition of wild-type human full length PDK1 (M1 to Q556 residues) expressed in bacterial expression system assessed as residual activity at 50 nM by Kinomescan method relative to control
[14] = target: Phosphatidylinositol 5-phosphate 4-kinase type-2 beta (Homo sapiens) (UniProt P78356); assay: Inhibition of wild-type human full length PIP5K2B (M1 to T416 residues) expressed in bacterial expression system assessed as residual activity at 50 nM by Kinomescan method relative to control
[15] = target: Serine/threonine-protein kinase PLK3 (Homo sapiens) (UniProt Q9H4B4); assay: Inhibition of wild-type human partial length PLK3 (A42 to L334 residues) expressed in mammalian expression system assessed as residual activity at 50 nM by Kinomescan method relative to control
[16] = target: Death-associated protein kinase 2 (Homo sapiens) (UniProt Q9UIK4); assay: Inhibition of wild-type human full length DAPK2 (M1 to S370 residues) expressed in bacterial expression system assessed as residual activity at 50 nM by Kinomescan method relative to control
[17] = target: Fibroblast growth factor receptor 3 (Homo sapiens) (UniProt P22607); assay: Inhibition of wild-type human partial length FGFR3 (R442 to S771 residues) expressed in bacterial expression system assessed as residual activity at 50 nM by Kinomescan method relative to control
[18] = target: Calcium/calmodulin-dependent protein kinase type IV (Homo sapiens) (UniProt Q16566); assay: Inhibition of wild-type human partial length CAMK4 (A22 to A322 residues) expressed in bacterial expression system assessed as residual activity at 50 nM by Kinomescan method relative to control
[19] = target: Hormonally up-regulated neu tumor-associated kinase (Homo sapiens) (UniProt P57058); assay: Inhibition of wild-type human partial length HUNK (A31 to K354 residues) expressed in bacterial expression system assessed as residual activity at 50 nM by Kinomescan method relative to control
[20] = test system: Mus musculus; assay: In vivo inhibition of JAK1/JAK3 in Balb/c mouse assessed as reduction in IL15-induced STAT5 phosphorylation at […], po after 4 hrs; assay type: functional, organism-based
[21] = target: Dual specificity testis-specific protein kinase 1 (Homo sapiens) (UniProt Q15569); assay: Inhibition of wild-type human full length TESK1 (R37 to S626 residues) expressed in bacterial expression system assessed as residual activity at 50 nM by Kinomescan method relative to control
[22] = target: Mitogen-activated protein kinase kinase kinase 10 (Homo sapiens) (UniProt Q02779); assay: Inhibition of wild-type human partial length MLK2 (V52 to W380 residues) expressed in bacterial expression system assessed as residual activity at 50 nM by Kinomescan method relative to control
[23] = target: Dual specificity protein kinase CLK2 (Homo sapiens) (UniProt P49760); assay: Inhibition of wild-type human partial length CLK2 (D144 to R498 residues) expressed in bacterial expression system assessed as residual activity at 50 nM by Kinomescan method relative to control
[24] = target: Serine/threonine-protein kinase 10 (Homo sapiens) (UniProt O94804); assay: Inhibition of wild-type human partial length LOK (E16 to V314 residues) expressed in bacterial expression system assessed as residual activity at 50 nM by Kinomescan method relative to control
[25] = target: Ribosomal protein S6 kinase beta-1 (Homo sapiens) (UniProt P23443); assay: Inhibition of wild-type human partial length P70S6K (M1 to S421 residues) expressed in mammalian expression system assessed as residual activity at 50 nM by Kinomescan method relative to control
Sequence of Ribosomal protein S6 kinase beta-1 (Homo sapiens) (P23443 whole entry, looked up, the tested form may be a part): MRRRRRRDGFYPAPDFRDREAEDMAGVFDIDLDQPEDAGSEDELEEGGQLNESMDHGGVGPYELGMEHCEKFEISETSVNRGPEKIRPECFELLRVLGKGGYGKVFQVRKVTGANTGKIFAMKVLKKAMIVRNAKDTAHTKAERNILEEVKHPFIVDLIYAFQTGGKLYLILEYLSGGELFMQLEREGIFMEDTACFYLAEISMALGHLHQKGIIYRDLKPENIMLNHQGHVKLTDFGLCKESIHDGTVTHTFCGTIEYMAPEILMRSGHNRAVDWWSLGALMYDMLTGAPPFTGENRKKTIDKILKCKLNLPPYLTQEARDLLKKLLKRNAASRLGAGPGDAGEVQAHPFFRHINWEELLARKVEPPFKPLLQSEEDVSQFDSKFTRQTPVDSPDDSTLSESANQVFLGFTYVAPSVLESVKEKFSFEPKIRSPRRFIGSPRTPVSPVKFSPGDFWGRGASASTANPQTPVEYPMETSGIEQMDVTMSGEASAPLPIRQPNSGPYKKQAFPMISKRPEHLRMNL

Sequence of Dual specificity testis-specific protein kinase 1 (Homo sapiens) (Q15569 whole entry, looked up, the tested form may be a part): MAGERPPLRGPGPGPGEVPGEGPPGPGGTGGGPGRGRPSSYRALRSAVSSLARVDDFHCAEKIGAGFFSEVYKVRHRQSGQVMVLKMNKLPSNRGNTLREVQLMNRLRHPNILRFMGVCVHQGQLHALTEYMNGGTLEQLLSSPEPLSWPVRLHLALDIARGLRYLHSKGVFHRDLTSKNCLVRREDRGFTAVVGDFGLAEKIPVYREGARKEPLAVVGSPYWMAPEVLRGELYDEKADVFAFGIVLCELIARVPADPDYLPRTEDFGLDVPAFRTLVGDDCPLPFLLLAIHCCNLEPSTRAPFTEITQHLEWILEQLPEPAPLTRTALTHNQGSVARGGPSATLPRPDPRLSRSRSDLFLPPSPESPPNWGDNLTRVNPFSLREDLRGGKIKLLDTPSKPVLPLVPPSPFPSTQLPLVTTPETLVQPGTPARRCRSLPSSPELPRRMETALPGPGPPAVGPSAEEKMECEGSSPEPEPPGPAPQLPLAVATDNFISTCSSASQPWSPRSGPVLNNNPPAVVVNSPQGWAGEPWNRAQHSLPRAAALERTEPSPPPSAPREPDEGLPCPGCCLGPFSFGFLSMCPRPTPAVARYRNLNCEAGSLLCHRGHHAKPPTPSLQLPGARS
Sequence of NUAK family SNF1-like kinase 2 (Homo sapiens) (Q9H093 whole entry, the tested form may be a part): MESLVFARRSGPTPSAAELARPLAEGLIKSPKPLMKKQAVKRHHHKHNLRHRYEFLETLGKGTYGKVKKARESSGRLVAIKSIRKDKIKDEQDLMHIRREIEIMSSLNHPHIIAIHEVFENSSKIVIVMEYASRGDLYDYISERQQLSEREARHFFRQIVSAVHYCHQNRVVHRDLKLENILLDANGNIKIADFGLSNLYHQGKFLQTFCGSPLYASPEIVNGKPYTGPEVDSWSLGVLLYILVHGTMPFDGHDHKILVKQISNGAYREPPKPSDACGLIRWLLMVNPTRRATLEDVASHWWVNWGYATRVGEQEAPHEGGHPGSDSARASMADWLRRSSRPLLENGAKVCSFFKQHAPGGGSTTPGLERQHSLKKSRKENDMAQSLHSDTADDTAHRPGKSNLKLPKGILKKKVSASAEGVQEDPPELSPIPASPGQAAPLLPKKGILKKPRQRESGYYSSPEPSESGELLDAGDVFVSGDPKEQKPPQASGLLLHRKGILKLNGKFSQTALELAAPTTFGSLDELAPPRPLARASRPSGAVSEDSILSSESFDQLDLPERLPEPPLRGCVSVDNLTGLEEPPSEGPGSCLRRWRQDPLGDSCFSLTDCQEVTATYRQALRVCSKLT
Sequence of Mitogen-activated protein kinase kinase kinase 4 (Homo sapiens) (Q9Y6R4 whole entry, the tested form may be a part): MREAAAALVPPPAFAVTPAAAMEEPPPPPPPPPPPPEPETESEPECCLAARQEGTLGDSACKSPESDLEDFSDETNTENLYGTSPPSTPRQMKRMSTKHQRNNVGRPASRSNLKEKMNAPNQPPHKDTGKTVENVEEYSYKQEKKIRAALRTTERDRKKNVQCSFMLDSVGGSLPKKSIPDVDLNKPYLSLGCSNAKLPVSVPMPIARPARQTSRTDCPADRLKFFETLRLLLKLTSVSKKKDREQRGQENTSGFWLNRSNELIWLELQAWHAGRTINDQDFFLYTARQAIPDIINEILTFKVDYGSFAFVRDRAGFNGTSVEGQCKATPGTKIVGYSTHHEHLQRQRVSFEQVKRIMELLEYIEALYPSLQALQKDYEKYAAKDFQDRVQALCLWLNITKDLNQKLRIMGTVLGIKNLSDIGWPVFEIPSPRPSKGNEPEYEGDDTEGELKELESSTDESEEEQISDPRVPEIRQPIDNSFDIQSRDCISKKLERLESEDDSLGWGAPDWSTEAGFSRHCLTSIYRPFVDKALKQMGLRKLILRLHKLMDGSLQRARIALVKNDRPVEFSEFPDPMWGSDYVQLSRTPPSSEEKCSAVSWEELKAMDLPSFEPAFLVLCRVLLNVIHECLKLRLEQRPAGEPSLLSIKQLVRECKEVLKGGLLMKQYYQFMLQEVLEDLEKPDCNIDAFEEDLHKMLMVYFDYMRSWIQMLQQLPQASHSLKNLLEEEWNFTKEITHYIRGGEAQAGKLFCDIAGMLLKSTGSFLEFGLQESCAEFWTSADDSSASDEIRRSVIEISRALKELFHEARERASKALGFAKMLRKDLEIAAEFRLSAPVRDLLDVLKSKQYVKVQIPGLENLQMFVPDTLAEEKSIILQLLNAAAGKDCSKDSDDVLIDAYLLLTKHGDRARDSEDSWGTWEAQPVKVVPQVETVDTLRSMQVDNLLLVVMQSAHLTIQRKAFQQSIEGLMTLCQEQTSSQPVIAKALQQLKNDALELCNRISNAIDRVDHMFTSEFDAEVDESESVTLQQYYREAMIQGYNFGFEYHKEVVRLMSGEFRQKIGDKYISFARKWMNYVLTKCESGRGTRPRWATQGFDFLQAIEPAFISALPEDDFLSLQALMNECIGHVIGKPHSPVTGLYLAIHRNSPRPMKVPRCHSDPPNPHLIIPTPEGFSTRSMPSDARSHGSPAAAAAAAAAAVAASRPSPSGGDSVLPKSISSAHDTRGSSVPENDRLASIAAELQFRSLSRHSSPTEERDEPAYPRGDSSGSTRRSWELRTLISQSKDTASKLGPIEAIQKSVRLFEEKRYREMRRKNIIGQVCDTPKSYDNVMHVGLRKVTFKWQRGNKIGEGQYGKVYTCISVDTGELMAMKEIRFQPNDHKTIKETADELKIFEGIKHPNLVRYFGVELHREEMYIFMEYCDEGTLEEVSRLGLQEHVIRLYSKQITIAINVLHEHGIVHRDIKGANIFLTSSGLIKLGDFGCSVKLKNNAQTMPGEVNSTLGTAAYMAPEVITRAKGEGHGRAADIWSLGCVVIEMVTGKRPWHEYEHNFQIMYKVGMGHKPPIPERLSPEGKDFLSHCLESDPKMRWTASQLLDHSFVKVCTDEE
Sequence of Fibroblast growth factor receptor 3 (Homo sapiens) (P22607 23-806 limits assumed): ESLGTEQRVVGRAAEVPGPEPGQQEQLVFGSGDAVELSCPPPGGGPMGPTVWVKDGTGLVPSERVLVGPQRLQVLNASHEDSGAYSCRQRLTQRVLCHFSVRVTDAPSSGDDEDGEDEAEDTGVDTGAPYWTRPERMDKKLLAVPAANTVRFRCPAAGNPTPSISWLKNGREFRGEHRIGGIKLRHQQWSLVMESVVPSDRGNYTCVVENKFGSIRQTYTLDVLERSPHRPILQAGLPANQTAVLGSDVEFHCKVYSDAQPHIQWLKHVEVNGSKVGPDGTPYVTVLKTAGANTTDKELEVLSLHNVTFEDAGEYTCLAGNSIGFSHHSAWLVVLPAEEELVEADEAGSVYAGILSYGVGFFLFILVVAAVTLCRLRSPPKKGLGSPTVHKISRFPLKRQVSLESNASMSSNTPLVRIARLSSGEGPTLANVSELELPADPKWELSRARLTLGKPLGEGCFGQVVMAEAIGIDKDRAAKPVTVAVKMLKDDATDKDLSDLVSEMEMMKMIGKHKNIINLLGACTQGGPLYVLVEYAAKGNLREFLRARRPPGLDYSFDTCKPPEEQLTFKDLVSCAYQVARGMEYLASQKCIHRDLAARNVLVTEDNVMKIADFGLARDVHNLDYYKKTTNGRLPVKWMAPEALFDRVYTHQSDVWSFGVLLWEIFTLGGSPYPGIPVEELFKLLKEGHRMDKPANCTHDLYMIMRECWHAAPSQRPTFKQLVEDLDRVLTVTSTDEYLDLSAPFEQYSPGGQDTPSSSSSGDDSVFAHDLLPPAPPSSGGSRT
Sequence of Phosphatidylinositol 5-phosphate 4-kinase type-2 beta (Homo sapiens) (P78356 whole entry, the tested form may be a part): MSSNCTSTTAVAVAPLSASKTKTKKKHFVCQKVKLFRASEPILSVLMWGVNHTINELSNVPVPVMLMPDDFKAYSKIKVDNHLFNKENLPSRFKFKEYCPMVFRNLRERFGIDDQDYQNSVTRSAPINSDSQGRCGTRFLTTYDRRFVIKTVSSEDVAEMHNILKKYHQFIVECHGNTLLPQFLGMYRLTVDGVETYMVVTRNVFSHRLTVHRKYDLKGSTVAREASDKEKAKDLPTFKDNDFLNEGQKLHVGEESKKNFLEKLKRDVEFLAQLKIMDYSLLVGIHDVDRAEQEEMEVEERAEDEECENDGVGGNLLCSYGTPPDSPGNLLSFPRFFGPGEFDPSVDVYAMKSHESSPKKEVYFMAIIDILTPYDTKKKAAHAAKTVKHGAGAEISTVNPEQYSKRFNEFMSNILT
Sequence of Serine/threonine-protein kinase 17B (Homo sapiens) (O94768 whole entry, the tested form may be a part): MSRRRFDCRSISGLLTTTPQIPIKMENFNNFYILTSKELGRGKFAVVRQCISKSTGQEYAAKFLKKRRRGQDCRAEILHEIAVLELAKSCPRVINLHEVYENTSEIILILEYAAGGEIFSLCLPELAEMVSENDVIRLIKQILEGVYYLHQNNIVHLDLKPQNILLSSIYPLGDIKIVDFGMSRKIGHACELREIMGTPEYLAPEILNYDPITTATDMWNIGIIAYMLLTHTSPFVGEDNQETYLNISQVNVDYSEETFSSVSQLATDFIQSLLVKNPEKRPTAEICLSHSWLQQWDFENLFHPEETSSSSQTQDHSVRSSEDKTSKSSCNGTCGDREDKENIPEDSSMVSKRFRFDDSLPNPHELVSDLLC

| SMILES | Activity [1] [%] | Activity [2] [%] | Activity [3] [%] | Activity [4] [%] | Activity [5] [%] | Activity [6] [%] | Activity [7] [%] | Activity [8] [%] | Activity [9] [%] | Activity [10] [%] | Activity [11] [%] | Activity [12] [%] | Activity [13] [%] | Activity [14] [%] | Activity [15] [%] | Activity [16] [%] | Activity [17] [%] | Activity [18] [%] | Activity [19] [%] | EC50 [20] [nM] | also measured |
| --- | --- | --- | --- | --- | --- | --- | --- | --- | --- | --- | --- | --- | --- | --- | --- | --- | --- | --- | --- | --- | --- |
| COc1ccc(-c2cc3c(N[C@@H]4CC[C@](C)(N)C4(C)C)c(C(N)=O)cnn3c2)cn1 | 68 | 98 | 74 | 100 | 96 | 18 | 100 | 92 | 98 | 100 | 7 | 100 | 96 | 72 | 95 | 92 | 82 | 100 | 100 | 67 | Activity [21]: 84%; Activity [22]: 94%; Activity [23]: 71%; Activity [24]: 75%; Activity [25]: 97% |
| CC1(C)[C@H](Nc2c(C(N)=O)cnn3cc(-c4ccccc4)cc23)CC[C@]1(C)N | 50 | 100 | 92 | 100 | 96 | 3.6 | 100 | 34 | 100 | 100 | 2.7 | 100 | 82 | 47 | 89 | 71 | 100 | 100 | 65 | 125 | Activity [21]: 100%; Activity [22]: 100%; Activity [23]: 69%; Activity [24]: 48%; Activity [25]: 96% |
